Eleven molecules from US20030186967A1, “Acylresorcinol derivatives are selective vitronectin receptor inhibitors” (American Home Products Corporation, priority 1998, published 2003) can be followed below.

The target in the test is T1, Vitronectin receptor αVβ3 (Homo sapiens, UniProt P05106+P06756).
T1 construct: expressed in transfected cells; host or cells: 512P5 cells (plasma membrane preparation)
The experiment in a line: Vitronectin Receptor αVβ3 Binding Assay. Conditions: for IC50: read-out: VnR (IC50μM).

T1 sequence (P06756 31-889 limits assumed): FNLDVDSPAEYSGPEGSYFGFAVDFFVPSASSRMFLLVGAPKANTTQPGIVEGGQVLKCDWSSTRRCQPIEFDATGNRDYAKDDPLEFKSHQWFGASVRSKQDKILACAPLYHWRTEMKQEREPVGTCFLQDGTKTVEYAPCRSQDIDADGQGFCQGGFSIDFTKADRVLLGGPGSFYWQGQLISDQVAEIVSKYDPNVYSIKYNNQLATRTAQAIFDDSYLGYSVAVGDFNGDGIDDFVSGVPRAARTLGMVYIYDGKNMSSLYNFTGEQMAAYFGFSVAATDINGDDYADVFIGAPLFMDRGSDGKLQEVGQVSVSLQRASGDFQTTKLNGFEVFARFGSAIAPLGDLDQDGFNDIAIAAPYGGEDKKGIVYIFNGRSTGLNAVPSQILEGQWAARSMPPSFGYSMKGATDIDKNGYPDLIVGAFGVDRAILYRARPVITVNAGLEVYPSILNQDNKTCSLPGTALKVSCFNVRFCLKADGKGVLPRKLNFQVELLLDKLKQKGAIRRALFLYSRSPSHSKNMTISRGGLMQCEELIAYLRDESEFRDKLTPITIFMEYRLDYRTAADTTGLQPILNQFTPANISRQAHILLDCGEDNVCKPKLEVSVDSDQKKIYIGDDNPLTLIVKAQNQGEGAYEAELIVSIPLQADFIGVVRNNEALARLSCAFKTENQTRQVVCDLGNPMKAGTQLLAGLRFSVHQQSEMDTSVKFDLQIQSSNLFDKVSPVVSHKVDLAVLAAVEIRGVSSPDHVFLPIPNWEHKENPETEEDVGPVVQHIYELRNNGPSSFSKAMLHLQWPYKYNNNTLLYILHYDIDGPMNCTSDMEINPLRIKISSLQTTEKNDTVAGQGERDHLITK
T1 sequence (P06756 891-1048 partner limits assumed): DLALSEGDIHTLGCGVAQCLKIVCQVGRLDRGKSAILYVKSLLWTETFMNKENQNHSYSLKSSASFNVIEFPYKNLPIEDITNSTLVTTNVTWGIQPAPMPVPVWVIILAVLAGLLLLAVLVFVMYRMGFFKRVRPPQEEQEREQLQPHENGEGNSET
T1 sequence (P05106 27-788): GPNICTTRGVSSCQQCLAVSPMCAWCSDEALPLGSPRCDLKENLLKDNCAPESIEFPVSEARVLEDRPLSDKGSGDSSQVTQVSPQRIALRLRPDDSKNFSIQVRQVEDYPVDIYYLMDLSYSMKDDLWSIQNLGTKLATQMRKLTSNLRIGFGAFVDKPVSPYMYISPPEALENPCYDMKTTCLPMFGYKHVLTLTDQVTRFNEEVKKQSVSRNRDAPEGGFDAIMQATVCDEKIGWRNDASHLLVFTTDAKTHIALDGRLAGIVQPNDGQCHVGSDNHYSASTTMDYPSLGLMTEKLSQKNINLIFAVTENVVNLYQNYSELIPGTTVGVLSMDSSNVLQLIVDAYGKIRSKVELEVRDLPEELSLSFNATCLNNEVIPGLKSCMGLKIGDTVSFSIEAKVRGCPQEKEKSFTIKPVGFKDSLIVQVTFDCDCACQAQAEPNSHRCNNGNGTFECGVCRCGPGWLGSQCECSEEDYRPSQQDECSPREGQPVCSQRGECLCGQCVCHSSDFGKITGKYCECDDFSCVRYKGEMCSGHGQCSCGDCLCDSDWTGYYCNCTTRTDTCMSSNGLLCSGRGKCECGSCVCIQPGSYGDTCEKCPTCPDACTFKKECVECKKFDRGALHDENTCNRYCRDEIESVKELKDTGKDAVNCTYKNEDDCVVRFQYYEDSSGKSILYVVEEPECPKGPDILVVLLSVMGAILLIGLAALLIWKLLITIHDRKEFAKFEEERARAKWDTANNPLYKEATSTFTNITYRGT

For `O=C(NCCOc1ccc(C(=O)NC[C@H](NC(=O)OCc2ccccc2)C(=O)O)c(O)c1)NCc1ccc(Cl)cc1` [Example 263, (2S)-2-{[(benzyloxy)carbonyl]amino}-3-({4-[2-({[(4-chlorobenzyl)amino]-carbonyl}-amino)ethoxy]-2-hydroxybenzoyl}amino)propanoic acid], the IC50 was 29 µM. `CN(C)c1ccc(CNC(=O)NCCOc2ccc(C(=O)NC[C@H](NC(=O)OCc3ccccc3)C(=O)O)c(O)c2)cc1` [Example 264, (2S)-2-{[(benzyloxy)carbonyl]amino}-3-[(4-{2-[({[4-(dimethylamino)benzyl]-amino}carbonyl)amino]ethoxy}-2-hydroxybenzoyl)amino]propanoic acid]: the IC50 worked out at 59.3 µM. As for `NS(=O)(=O)c1ccc(CNC(=O)NCCOc2ccc(C(=O)NC[C@H](NC(=O)OCc3ccccc3)C(=O)O)c(O)c2)cc1` [Example 265, (2S)-3-[(4-{2-[({[4-(aminosulfonyl)benzyl]amino}carbonyl)amino]ethoxy}-2-hydroxybenzoyl)amino]-2-{[(benzyloxy)carbonyl]amino}propanoic acid], the IC50 worked out at 12.9 µM. The same measure, in the same setting: to `O=C(NCCOc1ccc(C(=O)NC[C@H](NC(=O)OCc2ccccc2)C(=O)O)c(O)c1)NCc1ccc(OC(F)(F)F)cc1` [Example 266, (2S)-2-{[(benzyloxy)carbonyl]amino}-3-[(2-hydroxy-4-{2-[({[4-(trifluoromethoxy)-benzyl]amino}carbonyl)amino]ethoxy}benzoyl)amino]propanoic acid] belongs 29.6 µM.

For the molecule `O=C(NCCOc1ccc(C(=O)NC[C@H](NC(=O)OCc2ccccc2)C(=O)O)c(O)c1)NCc1ccccc1Cl` [Example 267, (2S)-2-{[(benzyloxy)carbonyl]amino}-3-({4-[2-({[(2-chlorobenzyl)amino]carbonyl}-amino)ethoxy]-2-hydroxybenzoyl}amino)propanoic acid], the IC50 came out at 10.2 µM. Still for that read-out and setting: the figure for `Cc1ccccc1CNC(=O)NCCOc1ccc(C(=O)NC[C@H](NC(=O)OCc2ccccc2)C(=O)O)c(O)c1` [Example 268] is 33.4 µM; for `O=C(NCCOc1ccc(C(=O)NC[C@H](NC(=O)OCc2ccccc2)C(=O)O)c(O)c1)NCc1ccccc1Br` [Example 269, (2S)-2-{[(benzyloxy)carbonyl]amino}-3-({4-[2-({[(2-bromobenzyl)amino]-carbonyl}-amino)ethoxy]-2-hydroxybenzoyl}amino)propanoic acid] it is 21.2 µM.

For `O=C(NCCOc1ccc(C(=O)NC[C@H](NC(=O)OCc2ccccc2)C(=O)O)c(O)c1)NCc1ccc(Cl)cc1Cl` [Example 270, (2S)-2-{[(benzyloxy)carbonyl]amino}-3-({4-[2-({[(2,4-dichlorobenzyl)amino]-carbonyl}amino)ethoxy]-2-hydroxybenzoyl}amino)propanoic acid], the IC50 worked out at 21.7 µM.

On to `Nc1ccccc1CNC(=O)NCCOc1ccc(C(=O)NC[C@H](NC(=O)OCc2ccccc2)C(=O)O)c(O)c1` [Example 271, (2S)-3-({4-[2-({[(2-aminobenzyl)amino]carbonyl}amino)ethoxy]-2-hydroxybenzoyl}-amino)-2-{[(benzyloxy)carbonyl]amino}propanoic acid], for which the IC50 came to 13.7 µM. On the same count and under the same terms, to `O=C(NCCOc1ccc(C(=O)NC[C@H](NC(=O)OCc2ccccc2)C(=O)O)c(O)c1)NCc1ccccn1` [Example 272, (2S)-2-{[(benzyloxy)carbonyl]amino}-3-({2-hydroxy-4-[2-({[(pyridin-2-ylmethyl)-amino]carbonyl}amino)ethoxy]benzoyl}amino)propanoic acid] belongs 10.6 µM. Take `CCOC(=O)CC(NC(=O)c1ccc(OCCNc2ncccn2)cc1O)c1cccnc1` (centres unmarked) [Example 281, 3-[2-Hydroxy-4-[2-(pyrimidin-2ylamino)ethoxy]-benzoylamino]-3-pyridine-3-ylpropionic acid ethyl ester]: the “VnR (IC50μM)” value is “inactive”.
